Literature values as cited in patent US8658806B2, “Process for preparing optically active antrocin” (Deyew Biotech Corp., priority 2011, dated 2014).

Test system: MDA-MB-231 cells
Conditions: from Rao et al., Chem. Res. Toxicol. 2011, 24, 238-245, read-out: IC50 value against MDA-MB-231 cells of metastatic breast cancer

Question: For `C=C1CC[C@H]2C(C)(C)CCC[C@@]23C(=O)OC[C@@H]13` [antrocin], which IC50 is on record?
Answer: 600 nM
